SMILES strings stand for the structures.

The first test has as its system Bartonella strains. In words: Agar dilution testing (MIC). The note with it: growth read after 1 week. In kind it is cell-based. How it is done:
Agar was prepared with the N-acyl ciprofloxacin-derived compounds at concentrations of 10 μg/mL, 1.0 μg/mL and 0.1 μg/mL. An equivalent volume of DMSO was added to a control plate. Nine strains of Bartonella were harvested from 4-day-old plates, resuspended in 1.0 mL sterile HIB and adjusted to a McFarland 2.0 turbidity standard. Using a specific template, 12.5 μL of broth suspensions of each Bartonella strain was pipetted onto each of the fluoroquinalone compound-containing chocolate agar plates and the DMSO control plate. After 1 week, the growth of each Bartonella strain was examined and recorded.
On the technique in general: In agar dilution, organisms are placed on agar that contains the substance at set levels.
Turning to `CC(=O)N1CCN(c2cc3c(cc2F)c(=O)c(C(=O)O)cn3C2CC2)CC1` [RC4-125], the “MIC (minimal inhibitory concentration)” value is 1.0 to 10.0 µg/mL.
Still for that read-out and setting: under `CCC(C)(C)C(=O)N1CCN(c2cc3c(cc2F)c(=O)c(C(=O)O)cn3C2CC2)CC1` [RC4-143] stands 0.1 to 0.5 µg/mL.

A further test has as its system intracellular Bartonella henselae Houston-1. Kind of test: Assay for intracellular activity in infected HMEC-1 cells. In kind it is cell-based.
Settings: not given
As to the method: HMEC-1 cells were maintained in MCDB131 medium supplemented with 10% FBS, 5% L-glutamine, 10 ng/mL epidermal growth factor, 1 μg/mL hydrocortisone, penicillin/streptomycin and amphotericin B. HMEC-1 cells were infected with Bartonella henselae Houston-1 at a multiplicity of infection (MOI) of 100 for 4 hour in medium without ciprofloxacin-derived compounds. After infection, the cells were washed 2× with PBS and then treated with gentamicin (200 μg/mL) for 1 hour. Infected cells were washed as before and medium containing ciprofloxacin-derived compound was added at concentrations of 0.1 μg/mL, 1.0 μg/mL and 10 μg/mL. Infected cells were then incubated for 24, 48 and 96 hour. Ciprofloxacin-derived compounds were then removed, and the infected cells were washed as before and lysed with 0.1% saponin Lysates were plated on chocolate agar. After incubation for 8 days, CFU's were counted to determine the number of viable intracellular bacteria.
As to `CC(=O)N1CCN(c2cc3c(cc2F)c(=O)c(C(=O)O)cn3C2CC2)CC1` [RC4-125], the “activity against intracellular bacteria” value is reported as “significant activity against intracellular bacteria”.
Same read-out and setting: the entry for `CCC(C)(C)C(=O)N1CCN(c2cc3c(cc2F)c(=O)c(C(=O)O)cn3C2CC2)CC1` [RC4-143] is “significant activity against intracellular bacteria”.
Still for that read-out and setting: the entry for `CCC(=O)N1CCN(c2cc3c(cc2F)c(=O)c(C(=O)O)cn3C2CC2)CC1` [RC4-147] is “significant activity against intracellular bacteria”; for `CCCC(=O)N1CCN(c2cc3c(cc2F)c(=O)c(C(=O)O)cn3C2CC2)CC1` [RC5-29] it is “significant activity against intracellular bacteria”.
Consider `CC(C)(C)C(=O)N1CCN(c2cc3c(cc2F)c(=O)c(C(=O)O)cn3C2CC2)CC1` [RC5-32], for which the “activity against intracellular bacteria” value is “significant activity against intracellular bacteria”.
Same read-out and setting: under `CC(=O)N1CCN(c2cc3c(cc2F)c(=O)c(C(=O)N2CCN(c4cc5c(cc4F)c(=O)c(C(=O)O)cn5C4CC4)CC2)cn3C2CC2)CC1` [RC5-69] stands “significant activity against intracellular bacteria”.

The test is the same for the next values; noted with them: infected HMEC cells treated with 1.0 μg/mL for 24 hours.
As to `CCC(=O)N1CCN(c2cc3c(cc2F)c(=O)c(C(=O)O)cn3C2CC2)CC1` [RC4-147], the “decrease in CFUs (intracellular colony forming units)” value was “greater than a tenfold decrease”.

Values taken from patent US8143398B1, “Activity of new N-acylated ciprofloxacin derivatives against faculative intracellular bacteria” (University of South Florida, priority 2010, dated 2012).
